A word on the pKa: it is the pH at which an ionisable group is half protonated. A lower pKa goes with a stronger acid or weaker base.

The nature of one series: pKa (66% aqueous DMF). It counts as physicochemical.
The subject of series [1] is β-lactamase, organism PS185. Briefly: Stability to β-lactamase (Table V). The format is biochemical. Particulars: lower numbers mean greater stability.
In series [2] the test system is β-lactamase, organism 1313G. The series can be described thus: Stability to β-lactamase (Table V). The format is biochemical. Particulars: lower numbers mean greater stability.
Series [3] relates to β-lactamase, organism 1082E. Briefly: Stability to β-lactamase (Table V). To be noted: lower numbers mean greater stability. The format is biochemical.
A further series relates to Bacteroides fragilis. The series can be described thus: Expanded anaerobic Spectrum MIC (Table IV). It counts as cell-based.
Series [4] deals with β-lactamase, organism TEM. The format is biochemical. To be noted: lower numbers mean greater stability.
In series [5] the test system is β-lactamase, organism 265A. The series can be described thus: Stability to β-lactamase (Table V). It counts as biochemical. Particulars: lower numbers mean greater stability.
For a further series, the system named is Haemophilus influenzae. Briefly: Expanded H. influenzae Spectrum MIC (Table IV). The format is cell-based.
Setting [6] is: read-out: MIC mean, mean over strains.

Converted amounts (≈) assume the structure as drawn. Read-outs that look alike come from different tables or passages of the source.

`C=CCOC(=O)NC(C(=O)O)c1csc2ccccc12` (stereo not drawn) [N-Allyloxycarbonyl-(3-benzothienyl)glycine]: in “pKa (66% aqueous DMF)”, the pKa is 5.7.

Turning to `N[C@@H](C(=O)N[C@@H]1C(=O)N2C(C(=O)O)=C(Cl)CS[C@H]12)c1ccccc1` [cefaclor], the “Stability to β-lactamase” value in series [1] was found to be 71; in series [2], 4605; in series [3], 65; in series [4], 23; in series [5], 138. Also, the MIC with Bacteroides fragilis (read-out: MIC Geometric mean, geometric mean over strains) came out at 32 µg/mL (≈ 87 µM); with Bacteroides fragilis (setting [6]) it was 39 µg/mL (≈ 106 µM); against Bacteroides fragilis (strain 180-821), 64 µg/mL (≈ 174 µM); against Bacteroides fragilis (strain 10668), 64 µg/mL (≈ 174 µM); against Bacteroides fragilis (strain 10683), 16 µg/mL (≈ 43.5 µM); against Bacteroides fragilis (strain 10695) it was 32 µg/mL (≈ 87 µM). Further, the MIC against Bacteroides fragilis (strain 10732) was 16 µg/mL (≈ 43.5 µM); against Bacteroides fragilis (strain 10750) it was over 64 µg/mL; against Bacteroides fragilis (strain 10774), over 64 µg/mL; in the series with Bacteroides fragilis (strain 10817) it was 64 µg/mL (≈ 174 µM); in the series on Bacteroides fragilis (strain 10837), over 64 µg/mL; in the series on Bacteroides fragilis (strain 107266), 16 µg/mL (≈ 43.5 µM). Besides, the MIC was 16 µg/mL (≈ 43.5 µM) against Bacteroides fragilis (strain 107268); 32 µg/mL (≈ 87 µM) against Bacteroides fragilis (strain 108133); 2 µg/mL (≈ 5.44 µM) with Haemophilus influenzae (read-out: MIC Geometric Mean, geometric mean over strains); 3 µg/mL (≈ 8.16 µM) with Haemophilus influenzae (setting [6]); 2 µg/mL (≈ 5.44 µM) in the series with Haemophilus influenzae (strain 101); 16 µg/mL (≈ 43.5 µM) against Haemophilus influenzae (strain 102). The MIC with Haemophilus influenzae (strain 103) turned out to be 2 µg/mL (≈ 5.44 µM); in the series with Haemophilus influenzae (strain 104), 1 µg/mL (≈ 2.72 µM); against Haemophilus influenzae (strain 105) it was 1 µg/mL (≈ 2.72 µM); in the series with Haemophilus influenzae (strain 106), 2 µg/mL (≈ 5.44 µM); in the series with Haemophilus influenzae (strain 107), 2 µg/mL (≈ 5.44 µM); in the series on Haemophilus influenzae (strain 108), 1 µg/mL (≈ 2.72 µM). Moreover, the MIC in the series on Haemophilus influenzae (strain 109) stood at 2 µg/mL (≈ 5.44 µM); in the series on Haemophilus influenzae (strain 110), 1 µg/mL (≈ 2.72 µM); in the series with Haemophilus influenzae (strain 111), 1 µg/mL (≈ 2.72 µM); in the series with Haemophilus influenzae (strain 112) it was 2 µg/mL (≈ 5.44 µM); against Haemophilus influenzae (strain 113) it was 2 µg/mL (≈ 5.44 µM); against Haemophilus influenzae (strain 114), 1 µg/mL (≈ 2.72 µM).

For the origin of these results see patent US4492693A, “Benzothienylglycyl cephalosporin derivatives” (priority 1983, dated 1985).
